We go through 1 compound from patent US12263139B2, “Use of cannabidiol in the treatment of tuberous sclerosis complex” (Jazz Pharmaceuticals Research UK Limited, priority 2017, dated 2025).

One test relates to Miapaca. In words: Drug combination assay (MTT, CalcuSyn) of Rad001 and CBD in Miapaca. Format: cell-based, Homo sapiens. As for the experimental part:
For the study of the synergism between Rad001 and CBD on pancreatic cell lines Miapaca was tested, the cells were seeded in 96-multiwell plates at the density of 3.8 10^3 cells/well. After 24 hr incubation at 37° C., the cells were treated with different concentrations of Rad001 and CBD. Different molar ratios between two drugs in different sequences of administration were tested, (Rad001 for 48 h and CBD for 72 h or Rad001 for 72 h and CBD for 48 h and in co-administration for 72 h.
The proliferative response was estimated by colorimetric 3-(4,5 di-methylthiazol-2-yl)-2,5-diphenyltetrazolium bromide (MIT) test. MTT conversion to formazan by metabolically viable cells was monitored by spectrophotometer at an optical density of 570 nm. Each data point represents the average of three separate experiments with each experiment containing four wells. Drug combination studies were based on concentration-effect curves generated as a plot of the fraction of unaffected (surviving) cells versus drug concentration after treatment.
To explore the relative contribution of each agent to the synergism equi-active doses of […] were tested (IC50). Assessment of synergy was performed quantitating drug interaction by Calcusyn computer program (Biosoft, Ferguson, MO). Combination index (CI) values of <1, 1, and >1 indicate synergy, additivity and antagonism, respectively.
Dose reduction index (DRI) representing the measure of how much the dose of each drug in a combination may be reduced at a given effect level compared with the doses of each drug alone.
The effects of the pharmacological combination between CBD and RAD001 on the proliferation MIAPACA cell lines, using MTT assay were studied. The data obtained were processed with dedicated program, CalcuSyn (Chou and Talalay, Biosoft, Oregon, USA), which measures synergism.
The specific contribution of CBD and Rad001 on the cytotoxic effect of the combination of drugs was analyzed by calculating the potentiation factor (PF) defined as the ratio of the IC50 of either CBD or Rad001 alone to the IC50 of CBD and Rad001 in combination. A higher PF indicates a greater cytotoxicity.

In a further test the test system is Panc-1 cells. In words: MTT cell viability assay in Panc-1. Format: cell-based. The note with it: Homo sapiens, 50 μM CBD, 72 h, FIG. 6A, read-out: growth inhibition. As for the experimental part:
PANC-1 is a human pancreatic carcinoma, epithelial-like cell line; PANC-1 cells are used as an in vitro model of non-endocrine pancreatic cancer for tumorigenicity studies.
Cell viability was analyzed by the MTT [3-(4,5-dimethylthiazol-2-yl)-2,5-diphenyl tetrazolium bromide] assay. Pancreatic cancer cells were seeded onto each well of a 96-well plate. After 72 h of treatment with CBD, MTT solution 5 mg/ml in PBS was added to each well. The plates were then incubated at 37° C. for an additional 4 h to allow MTT to form formazan crystals by reacting with metabolically active cells. The formazan crystals were solubilized in a 1N isopropanol/HCl 10% solution at 37° C., on a shaking table for 20 min. The absorbance values of the solution in each well were measured at 570 nm using a microplate reader. Cell viability was determined by the formula: cell viability (%)=(absorbance of the treated wells−absorbance of the blank control wells)/(absorbance of the negative control wells−absorbance of the blank control wells)×100%. All MTT experiments were performed in triplicate and repeated at least three times.
The growth inhibition induced by different concentrations (0.04-50 μM) of CBD on human Panc-1 at 72 h from the beginning of the treatment was evaluated with MTT assay.
In general terms: Tetrazolium assays rely on reduction of a dye to a coloured formazan, in cell work by metabolically active cells.

Test [1] deals with mTORC1 signalling (rpS6 phosphorylation). Briefly: Western blot of rpS6 phosphorylation (mTORC1 signalling) in Tsc2−/− MEFs. The following applies: CBD at 5 μM, 6 h of treatment. Format: cell-based, mouse. As for the experimental part:
Cells were washed in Phosphate Buffered Saline (PBS) and then lysed directly in sample buffer (62.5 mM Tris HCL, 50 mM DTT, 2% SDS (w/v), 10% Glycerol (w/v), 0.1% Bromophenol blue (w/v) pH 7.6) and sonicated for 5×20 s cycles on full power (30 amplitude microns). Samples were boiled at 95° C. for 10 min. Lysates were resolved by SDS-PAGE and proteins were transferred to polyvinylidene difluoride membranes.
Membranes were blocked in 5% (w/v) dry milk powder dissolved in Tris-buffered saline containing 0.1% (v/v) Tween, then probed with primary antibody and horse radish peroxidase-conjugated secondary antibody. Proteins were visualized using Enhanced Chemiluminescent solution and Hyperfilm. Antibodies towards ribosomal protein S6 (rpS6), phospho-rpS6 (Ser235/236) were purchased from Cell Signaling Technology. Anti-HIF-1α was obtained from BD transduction laboratories. Statistical Analysis
Western blotting was carried out to determine whether CBD could impair mTORC1 signalling (using rpS6 phosphorylation as a readout of mTORC1 signalling).

Another test relates to AML 621-101 cells. Briefly: Transwell cell migration assay in AML 621-101 cells. The class given is cell-based. As for the experimental part: (i) Angiomyolipomas (AML) cells derived from a Tuberous Sclerosis Complex patient (621-101 cell-line), with a known loss of function of TSC2. […] Zeocin™ was purchased from LifeTechnologies (cat no: R25001) and was used to originally generate the stable cell line (by Prof. Lisa Henske) over two weeks of Zeocin™ selection and then for continued maintenance of the cells in tissue culture (at 100 μg/ml).
Tsc2−/− and Tsc2+/+ cell lines were cultured and maintained in DMEM supplemented with 10% (v/v) FBS and 1% (v/v) penicillin-streptomycin in a humidified incubator (5% CO2 at 37° C.). The AML −/− cell lines were cultured and maintained in DMEM supplemented with 15% (v/v) FBS and 1% (v/v) penicillin-streptomycin in a humidified incubator (5% CO2 at 37° C.). For hypoxia, cells were put into a Binder CB150 hypoxic chamber set at 1% 02 for the indicated time points
The stock concentration of CBD was made to 20 mM in dimethyl sulfoxide (DMSO). […]
Transwell permeable supports with 6.5 mm diameter inserts, 8.0 μm pore size, and a polycarbonate membrane were used to perform migration assays. […] Cells were counted using a haemocytometer. […] The percentage of adherent cells was then determined by fixing the cells with methanol and acetone (1:1) for 20 minutes at 20° C. […] Crystal Violet stained cells were eluted with 1% (w/v) SDS and the absorbance was read at 550 nm on a Genova MK3 Lifescience.

As usually defined, the inhibition is the relative decrease from the control value, in per cent. For the compound `C=C(C)[C@@H]1CCC(C)=C[C@H]1c1c(O)cc(CCCCC)cc1O` [CBD, Cannabidiol], the IC50 in the test on Miapaca (Homo sapiens, MIA PaCa-2, Miapaca, 50% effect level, read-out: Dose of drug alone) was 3.6 µM. In the test with Miapaca (Miapaca, Rad/CBD combination, dose reduction index), the DRI50 entry is given as “CBD 7.1”. In addition, in the test on Miapaca (ratio of IC50 alone to IC50 of CBD and Rad001 in combination), the “potentiation factor (PF)” value is listed as 8. For the same compound, in the test with Panc-1 cells, the inhibition at 50 µM came to 41%. Besides, in test [1], the rpS6 phosphorylation result was “inhibited rpS6 phosphorylation”. Also, the “cell migration compared with rapamycin” value in the test on AML 621-101 cells (10 μM CBD) was “reduced cell migration to a significantly greater extent than rapamycin”. Further, the cell migration result with AML 621-101 cells (CBD at both 5 μM and 10 μM) is “significantly block”.
